In patent US11465983B2, “USP7 inhibitors for treating multiple myeloma” (Dana-Farber Cancer Institute, Inc., priority 2017, dated 2022) one finds IC50 data, which are given here for 63 compounds.

pIC50: −log10 of the molar value. A value given as a limit tells only on which side of the number the result lay.

Sequence of USP7 (Q93009 208-560 limits assumed): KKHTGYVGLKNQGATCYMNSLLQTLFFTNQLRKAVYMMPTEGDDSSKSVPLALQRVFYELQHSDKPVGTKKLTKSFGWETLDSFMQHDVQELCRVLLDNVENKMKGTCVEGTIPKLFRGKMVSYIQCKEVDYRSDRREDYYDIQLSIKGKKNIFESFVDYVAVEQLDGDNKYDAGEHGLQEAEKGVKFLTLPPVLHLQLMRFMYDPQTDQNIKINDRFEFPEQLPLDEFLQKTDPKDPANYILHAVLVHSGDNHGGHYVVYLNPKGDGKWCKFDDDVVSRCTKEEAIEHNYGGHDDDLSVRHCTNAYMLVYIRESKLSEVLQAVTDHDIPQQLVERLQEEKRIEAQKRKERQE

This assay concerns the target USP7 (Homo sapiens, UniProt Q93009). Put plainly: Ub-AMC assay (USP7 assay). The format is biochemical. Also on record: fused on or other part: His tag from pET28aLIC; removed by thrombin for the catalytic domain, no removal step given for the full length. The following applies: USP7 assay. The protocol:
USP7 and mutants were tested for their activity in Ubiquitin-AMC assay in presence or absence of inhibitors. […] For the same assay USP7 full length WT and Q351 mutant were used at 50 nM. […] The reaction was incubated 30 min at room temperature prior to the addition of 2 uM Ubiquitin-AMC (Boston Biochem) substrate. […] The calculated initial rate values were plotted against inhibitor concentrations to determine IC50s. All the experimental data were plotted using Prism GraphPad. FIG. 2A illustrates the structure guided optimization for the inhibition of USP7.
ND refers to not disclosed.
As to `O=C(C1Cc2ccccc2C1)N1CCC(O)(Cn2cnc3cc(Cl)ccc3c2=O)CC1` [Compound 81], the pIC50 was less than 5.00.

Compound `Nc1ccc2c(=O)n(CC3(O)CCN(C(=O)CCc4ccccc4)CC3)cnc2c1` [Compound 57] had a pIC50 of less than 5.00.

`O=C(CCc1ccccc1)N1CCC(O)(Cn2cnc3ccc([N+](=O)[O-])cc3c2=O)CC1` [Compound 68] had a pIC50 of less than 5.00.

Take `C[C@@H](c1ccccc1)N(C)C(=O)N1CCC(O)(Cn2cnc3cc(Cl)ccc3c2=O)CC1` [Compound 42]: the pIC50 was less than 5.00.

On to `CC(=O)Nc1ccc2c(=O)n(CC3(O)CCN(C(=O)CC(C)c4ccccc4)CC3)cnc2c1` (stereo not drawn) [Compound 86], for which the pIC50 is 6.00 to 6.70.

Take `O=C(c1ccc2c(Cl)c3c(nc2c1)CCCC3)N1CCC(O)(Cn2cnc3cc(Cl)ccc3c2=O)CC1` [Compound 71]: the pIC50 was less than 5.00.

As to `N[C@@H](Cc1ccccc1)C(=O)N1CCC(O)(Cn2cnc3cc(Cl)ccc3c2=O)CC1` [Compound 22], the negative-log IC50 (pIC50) is less than 5.00.

`O=c1c2ccc(Cl)cc2ncn1CC1(O)CCN(c2ccc([N+](=O)[O-])cn2)CC1` [Compound 78]: the negative-log IC50 (pIC50) was less than 5.00.

For the compound `O=C(CCc1cccc(Br)c1)N1CCC(O)(Cn2cnc3cc(Cl)ccc3c2=O)CC1` [Compound 24], the pIC50 is less than 5.00.

Turning to `O=C(NCCCC(=O)N1CCC(O)(Cn2cnc3cc(Cl)ccc3c2=O)CC1)c1ccc2c(Cl)c3c(nc2c1)CCCC3` [Compound 84], the pIC50 was 5.00 to 6.00.

In turn, `CN1CCN(CCC(=O)Nc2ccc3c(=O)n(CC4(O)CCN(C(=O)C(Cc5ccccc5)c5ccccc5)CC4)cnc3c2)CC1` (stereo not drawn) [Compound 49] gave a pIC50 of less than 5.00.

For `O=C(C1CC1c1ccccc1)N1CCC(O)(Cn2cnc3cc(Cl)ccc3c2=O)CC1` (stereo not drawn) [Compound 30], the pIC50 is 5.00 to 6.00.

`O=C(N[C@@H](Cc1ccccc1)C(=O)N1CCC(O)(Cn2cnc3cc(Cl)ccc3c2=O)CC1)c1ccc2c(Cl)c3c(nc2c1)CCCC3` [Compound 99]: the pIC50 was 5.00 to 6.00.

The compound `CC(C)C(Cc1ccccc1)C(=O)N1CCC(O)(Cn2cnc3cc(Cl)ccc3c2=O)CC1` (stereo not drawn) [Compound 91] gave a pIC50 of 6.00 to 6.70.

With `O=c1c2ccc(Cl)cc2ncn1CC1(O)CCN(c2cccnc2)CC1` [Compound 77], the pIC50 was less than 5.00.

`CC(C)(C)C(=O)Nc1ccc2c(=O)n(CC3(O)CCN(C(=O)CCc4ccccc4)CC3)cnc2c1` [Compound 105] gave a negative-log IC50 (pIC50) of less than 5.00.

`O=C(CCl)NCCC(=O)N1CCC(O)(Cn2cnc3cc(Cl)ccc3c2=O)CC1` [Compound 44]: the pIC50 was less than 5.00.

In turn, `O=C([C@H]1C[C@@H]1c1ccccc1)N1CCC(O)(Cn2cnc3cc(Cl)ccc3c2=O)CC1` [Compound 75] showed a pIC50 of less than 5.00.

Turning to `CCC(Cc1ccccc1)C(=O)N1CCC(O)(Cn2cnc3cc(Cl)ccc3c2=O)CC1` (stereo not drawn) [Compound 94], the pIC50 was 5.00 to 6.00.

The compound `O=C(C1CCc2ccccc2C1)N1CCC(O)(Cn2cnc3cc(Cl)ccc3c2=O)CC1` (stereo not drawn) [Compound 25] gave a pIC50 of less than 5.00.

`Cc1cccc(CCC(=O)N2CCC(O)(Cn3cnc4cc(Cl)ccc4c3=O)CC2)c1` [Compound 89] had a pIC50 of less than 5.00.

The compound `O=C(CCc1ccc(F)cc1)N1CCC(O)(Cn2cnc3cc(Cl)ccc3c2=O)CC1` [Compound 54] gave a pIC50 of 6.00 to 6.70.

In turn, `Cn1cc(C(=O)CCl)cc1C(=O)NCCCCC(=O)N1CCC(O)(Cn2cnc3cc(Cl)ccc3c2=O)CC1` [Compound 18] gave a pIC50 of 5.00 to 6.00.

As for `O=C(CCc1ccc(F)cc1)N1CCC(O)(Cn2cnc3cc(Cl)ccc3c2=O)C1` (stereo not drawn) [Compound 66], the pIC50 is less than 5.00.

With `[N-]=[N+]=NCCOCCOCC(=O)Nc1ccc2c(=O)n(CC3(O)CCN(C(=O)CCc4ccccc4)CC3)cnc2c1` [Compound 63], the pIC50 is less than 5.00.

`O=C(CCc1ccccn1)N1CCC(O)(Cn2cnc3cc(Cl)ccc3c2=O)CC1` [Compound 34] showed a pIC50 of less than 5.00.

Compound `C[C@H](Cc1ccccc1)C(=O)N1CCC(O)(Cn2cnc3cc(Cl)ccc3c2=O)CC1` [Compound 72] had a pIC50 of 6.00 to 6.70.

In turn, `CC(C)C(CC(=O)N1CCC(O)(Cn2cnc3cc(NC(=O)CCN4CCN(C)CC4)ccc3c2=O)CC1)c1ccccc1` (stereo not drawn) [Compound 47] had a pIC50 of more than 6.70.

Consider `O=C(CCc1ccccc1)N1CCC(O)(Cn2cnc3cc([N+](=O)[O-])ccc3c2=O)CC1` [Compound 56], for which the pIC50 was less than 5.00.

In the case of `O=C(CC(c1ccccc1)c1ccccc1)N1CCC(O)(Cn2cnc3cc(Cl)ccc3c2=O)CC1` [Compound 82], the pIC50 is 5.00 to 6.00.

For “7-Chloro-3-((4-hydroxy-1-(3-phenylpropyl)piperidin-4-yl)methyl)quinazolin-4(3H)-one [Compound 4]”, the pIC50 was less than 5.00.

For the compound `CC(C)(C)C(=O)N1CCC(O)(Cn2cnc3cc(Cl)ccc3c2=O)CC1` [Compound 76], the pIC50 is less than 5.00.

Turning to `O=C(NCCCn1cnc2cc(Cl)ccc2c1=O)c1ccc2c(Cl)c3c(nc2c1)CCCC3` [Compound 85], the pIC50 is less than 5.00.

For the compound `O=C(C(Cc1ccccc1)c1ccccc1)N1CCC(O)(Cn2cnc3cc(Cl)ccc3c2=O)CC1` (stereo not drawn) [Compound 95], the pIC50 is less than 5.00.

`O=C(CCc1ccc([N+](=O)[O-])cc1)N1CCC(O)(Cn2cnc3cc(Cl)ccc3c2=O)CC1` [Compound 61] gave a pIC50 of less than 5.00.

`O=C(C1CCCN1c1ccccc1)N1CCC(O)(Cn2cnc3cc(Br)ccc3c2=O)CC1` (stereo not drawn) [Compound 65] had a negative logarithm of the IC50 (pIC50) of less than 5.00.

Turning to `O=C(CCc1ccccc1)N1CCC(Cn2cnc3cc(Cl)ccc3c2=O)CC1` [Compound 60], the pIC50 is less than 5.00.

On to `C=CC(=O)N[C@@H](Cc1ccccc1)C(=O)N1CCC(O)(Cn2cnc3cc(Cl)ccc3c2=O)CC1` [Compound 59], for which the pIC50 was less than 5.00.

Consider `O=C(CCc1ccccc1)N1CCC(Cn2cnc3cc(Cl)ccc3c2=O)CC1` [Compound 2, 7-Chloro-3-((1-(3-phenylpropanoyl)piperidin-4-yl)methyl)quinazolin-4(3H)-one], for which the pIC50 was more than 6.70.

With `Nc1ccc2c(c1)NCN(CC1(O)CCN(C(=O)CCc3ccccc3)CC1)C2=O` [Compound 58], the pIC50 is less than 5.00.

Compound `COC(Cc1ccccc1)C(=O)N1CCC(O)(Cn2cnc3cc(Cl)ccc3c2=O)CC1` (stereo not drawn) [Compound 92] showed a pIC50 of 5.00 to 6.00.

With `Nc1ccc2ncn(CC3(O)CCN(C(=O)CCc4ccccc4)CC3)c(=O)c2c1` [Compound 69], the pIC50 is less than 5.00.

Compound `C[C@H](CC(=O)N1CCC(O)(Cn2cnc3c(N)cccc3c2=O)CC1)c1ccccc1` [Compound 103] gave a pIC50 of 5.00 to 6.00.

Turning to `O=C(C[C@H](O)c1ccccc1)N1CCC(O)(Cn2cnc3cc(Cl)ccc3c2=O)CC1` [Compound 33], the pIC50 was less than 5.00.

`C=CCCC(=O)N1CCC(O)(Cn2cnc3cc(Cl)ccc3c2=O)CC1` [Compound 20]: the pIC50 was less than 5.00.

As for `O=C(CC1c2ccccc2-c2ccccc21)N1CCC(O)(Cn2cnc3cc(Cl)ccc3c2=O)CC1` [Compound 88], the negative-log IC50 (pIC50) was less than 5.00.

The compound `O=C(CCc1cccnc1)N1CCC(O)(Cn2cnc3cc(Cl)ccc3c2=O)CC1` [Compound 35] had a pIC50 of less than 5.00.

In turn, `O=C(/C=C/c1ccccc1)N1CCC(O)(Cn2cnc3cc(Cl)ccc3c2=O)CC1` [Compound 26] showed a pIC50 of less than 5.00.

`N[C@H](Cc1ccccc1)C(=O)N1CCC(O)(Cn2cnc3cc(Cl)ccc3c2=O)CC1` [Compound 21] gave a pIC50 of less than 5.00.

`O=C(NCc1ccccc1)N1CCC(O)(Cn2cnc3cc(Cl)ccc3c2=O)CC1` [Compound 36]: the pIC50 was less than 5.00.

As to `C=CC(=O)NCCCC(=O)N1CCC(O)(Cn2cnc3cc(Cl)ccc3c2=O)CC1` [Compound 46], the pIC50 was less than 5.00.

As for `O=C(N1CCC(O)(Cn2cnc3cc(Cl)ccc3c2=O)CC1)N(Cc1ccccc1)Cc1ccccc1` [Compound 40], the pIC50 is less than 5.00.

`CC(=O)Nc1ccc2c(=O)n(CC3(O)CCN(C(=O)CCc4ccccc4)CC3)cnc2c1` [Compound 64] gave a pIC50 of 5.00 to 6.00.

Consider `CC(C)(CC(=O)N1CCC(O)(Cn2cnc3cc(Cl)ccc3c2=O)CC1)c1ccccc1` [Compound 28], for which the pIC50 is less than 5.00.

`O=C(CCc1ccncc1)N1CCC(O)(Cn2cnc3cc(Cl)ccc3c2=O)CC1` [Compound 52] gave a pIC50 of less than 5.00.

`CC(=O)N1CCC(O)(Cn2cnc3cc(Cl)ccc3c2=O)CC1` [Compound 6, 3-((1-Acetyl-4-hydroxypiperidin-4-yl)methyl)-7-chloroquinazolin-4(3H)-one] gave a negative logarithm of the IC50 (pIC50) of less than 5.00.

Regarding `O=C([C@@H](O)Cc1ccccc1)N1CCC(O)(Cn2cnc3cc(Cl)ccc3c2=O)CC1` [Compound 32], the pIC50 is less than 5.00.

Compound `CCN(CC(=O)N1CCC(O)(Cn2cnc3cc(Cl)ccc3c2=O)CC1)c1ccccc1` [Compound 80] had a pIC50 of less than 5.00.

Turning to `O=C(COc1ccccc1)N1CCC(O)(Cn2cnc3cc(Cl)ccc3c2=O)CC1` [Compound 31], the pIC50 was less than 5.00.

The compound `C[C@H](CC(=O)N1CCC(O)(Cn2cnc3cc(NC(=O)CCN4CCOCC4)ccc3c2=O)CC1)c1ccccc1` [Compound 14, (R)—N-(3-((4-hydroxy-1-(3-phenylbutanoyl)piperidin-4-yl)methyl)-4-oxo-3,4-dihydroquinazolin-7-yl)-3-morpholinopropanamide] showed a pIC50 of more than 6.70.

For `C[C@H](CC(=O)N1CCC(O)(Cn2cnc3cc(NC(=O)CCN(C)C)ccc3c2=O)CC1)c1ccccc1` [Compound 15, (R)-3-(Dimethylamino)-N-(3-((4-hydroxy-1-(3-phenylbutanoyl)piperidin-4-yl)methyl)-4-oxo-3,4-dihydroquinazolin-7-yl)propanamide], the pIC50 was more than 6.70.

With `O=C(C#Cc1ccccc1)N1CCC(O)(Cn2cnc3cc(Cl)ccc3c2=O)CC1` [Compound 67], the pIC50 was less than 5.00.

On to `COc1ccc(CCC(=O)N2CCC(O)(Cn3cnc4cc(Cl)ccc4c3=O)CC2)cc1` [Compound 53], for which the pIC50 was less than 5.00.

What is called pIC50 is −log10 of the IC50, conventionally taken in molar units. A lower pIC50 goes with a high IC50.
